Common to all, as to format: cell-based
The test system of assay [1] is Notch1. Description: Notch1 Reporter Assay. A general note: Reporter assays use an easily measured gene product as a stand-in for the process of interest.
Assay [2] relates to OE33 Esophageal Adenocarcinoma cell line. Nature of the assay: OE33 Colony Formation Assay. The settings on record: Homo sapiens, OE33, 168 h, OE33 cells, 200 cells/well, 7 days, CellTiter-Glo. On the procedure:
OE33 Colony Formation Assay
The OE33 Esophageal Adenocarcinoma cell line was cultured and plated into 96-well tissue culture plates under sparse conditions (200 cells/well). Test compounds were serially diluted in DMSO and then into culture media (final DMSO concentration = 0.1%). Compound/media was then added to cells every 48 hours for a total of 7 days. Clonogenic growth was assessed using the CellTiter-Glo reagent, according to manufacturer (Promega) specifications. Percent inhibition was calculated as the percent of luminescence normalized to control (0.1% DMSO) wells. Nonlinear regression curve fitting was performed using GraphPad Prism software to determine EC50′s.
On the technique in general: In ATP-based viability assays light output follows the ATP content of the culture.

Assay [3] concerns the target T1, hNotch1ICD (Homo sapiens, UniProt P46531).
T1 construct: pLV[Tet]-Puro-TRE3G>Notch1-ICD; expressed in transfected cells; host or cells: 293A cells
Description: Notch1 Reporter Assay (Dox-inducible Notch1-ICD, CSL-responsive luciferase in 293A cells). As to conditions: 293A cells, 24 h, luciferase normalized to cell viability; read-out: Notch1 Reporter Assay IC50. In outline:
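293A cells carrying Dox-inducible Notch1-ICD and a CSL-responsive luciferase reporter treated with compound plus 25 ng/mL Dox (0.25% DMSO final) for 24 h. Luciferase normalised to CellTiter-Glo viability from the same lysate, scaled to DMSO; IC50 by 4-parameter nonlinear fit.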

Counter-ions that a name gives are not always drawn. Like-named read-outs stand apart in the source and are kept apart here.

T1 sequence (P46531 1754-2555 limits assumed): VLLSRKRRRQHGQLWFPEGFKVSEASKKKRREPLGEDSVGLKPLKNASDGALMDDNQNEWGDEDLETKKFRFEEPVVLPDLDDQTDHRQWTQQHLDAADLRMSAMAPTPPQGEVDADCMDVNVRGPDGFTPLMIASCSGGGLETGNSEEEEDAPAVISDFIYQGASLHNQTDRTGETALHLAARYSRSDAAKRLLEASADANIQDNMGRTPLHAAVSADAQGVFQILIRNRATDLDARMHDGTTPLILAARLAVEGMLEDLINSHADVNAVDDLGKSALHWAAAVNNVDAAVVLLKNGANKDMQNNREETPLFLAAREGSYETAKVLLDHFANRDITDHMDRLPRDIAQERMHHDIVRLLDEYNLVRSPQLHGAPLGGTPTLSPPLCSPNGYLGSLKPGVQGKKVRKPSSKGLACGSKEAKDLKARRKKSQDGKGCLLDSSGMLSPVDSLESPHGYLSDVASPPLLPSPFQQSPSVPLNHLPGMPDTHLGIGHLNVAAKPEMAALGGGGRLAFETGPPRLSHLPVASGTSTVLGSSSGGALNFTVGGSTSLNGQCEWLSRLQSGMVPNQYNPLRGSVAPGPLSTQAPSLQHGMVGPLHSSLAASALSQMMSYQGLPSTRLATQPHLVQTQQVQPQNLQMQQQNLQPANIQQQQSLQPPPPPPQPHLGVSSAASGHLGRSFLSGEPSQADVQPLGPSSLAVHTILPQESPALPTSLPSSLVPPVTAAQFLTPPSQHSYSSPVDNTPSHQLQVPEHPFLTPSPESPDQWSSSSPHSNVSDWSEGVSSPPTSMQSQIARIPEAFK

The IC50 is the point on the concentration scale where inhibition reaches its midpoint. Take `CC(C)Cn1c(=O)c(C(=O)Nc2cccc(N3CCN(C)CC3)c2)c(O)c2ccccc21` [SSTN-560_HCI salt, 4-hydroxy-1-isobutyl-N-(3-(4-methylpiperazin-1-yl)phenyl)-2-oxo-1,2-dihydroquinoline-3-carboxamide]: half-maximal inhibition in assay [1] (IC50) was put at 7.7 µM. As for `CC(C)Cn1c(=O)c(C(=O)Nc2cccc(N3CCN(C)CC3)c2)c(O)c2ccccc21` [SSTN-560 Formate Salt, 4-Hydroxy-1-Isobutyl-N-(3-(4-Methylpiperazin-1-Yl)Phenyl)-2-Oxo-1,2-Dihydroquinoline-3-Carboxamide Formate Salt], the IC50 in assay [1] (Formate Salt) is 10.2 µM.

Regarding `CC(C)Cn1c(=O)c(C(=O)Nc2cccc(N3CCN(C)CC3)c2)c(O)c2ccccc21` [SSTN-560, 4-hydroxy-1-isobutyl-N-(3-(4-methylpiperazin-1-yl)phenyl)-2-oxo-1,2-dihydroquinoline-3-carboxamide], half-maximal inhibition in assay [1] (IC50) required 14.2 µM. The term EC50 denotes the midpoint of the concentration-response curve. High values mean lower potency in that assay, low ones higher potency in that assay. In assay [2], `CC(C)Cn1c(=O)c(C(=O)Nc2cc(F)ccn2)c(O)c2ccccc21` [compound 522, N-(4-fluoropyridin-2-yl)-4-hydroxy-1-isobutyl-2-oxo-1,2-dihydroquinoline-3-carboxamide] displayed an EC50 of 6 µM. Moreover, in assay [3], the IC50 was 17.2 µM. Take `CC(C)Cn1c(=O)c(C(=O)Nc2cccc(F)c2)c(O)c2ccccc21` [compound 538, N-(3-fluorophenyl)-4-hydroxy-1-isobutyl-2-oxo-1,2-dihydroquinoline-3-carboxamide]: in assay [2], the EC50 stood at 1.7 µM. In assay [3], the IC50 is 9.6 µM. Compound `CC(C)Cn1c(=O)c(C(=O)Nc2ccc(N3CCN(C)CC3)cc2)c(O)c2ccccc21` [569(02)] registered an EC50 in assay [2] of 1.8 µM. For the same compound, in assay [3], the half-inhibitory concentration (IC50) worked out at 4.9 µM. For the compound `CC(C)Cn1c(=O)c(C(=O)Nc2cc(F)c(N3CCN(C)CC3)c(F)c2)c(O)c2ccccc21` [582(02)], the EC50 in assay [2] came out at 1.1 µM. The IC50 in assay [3] worked out at 1.9 µM. Compound `CC(C)Cn1c(=O)c(C(=O)Nc2cccc(N(C)CC3CC3)c2)c(O)c2ccccc21` [compound 562, N-(3-((cyclopropylmethyl)(methyl)amino)phenyl)-4-hydroxy-1-isobutyl-2-oxo-1,2-dihydroquinoline-3-carboxamide] returned a concentration for a half-maximal effect (EC50) in assay [2] of 7.7 µM. Besides, the IC50 in assay [3] worked out at 15 µM.

For the origin of these results see US20230203003A1, “Notch Inhibitors and Uses Thereof” (StemSynergy Therapeutics, Inc., priority 2020, published 2023).
